Data from US7807641B2, “Methods and reagents for treating glucose metabolic disorders” (Curis, Inc., priority 1999, dated 2010).
Where two headings read alike, the source gives them in different places. Numbered stars: 1 amine (or outer) side, 2 acyl side, 3 side chain; on linkers, the order of the positions; unused ones are H or OH. Bridge positions count the residues as written; N and C are the ends. Square brackets hold non-standard residues; d marks the D form. Ends that are not written are not given here. Peptide text beside a SMILES is read from it. I, II: the chains in the order shown. Actinocin(9to1) = Cc1c2oc3c(C)ccc(C(=O)[*:1])c3nc-2c(C(=O)[*:2])c(N)c1=O; NMeV = CN[C@H](C(=O)O)C(C)C; Sar = CNCC(=O)O

How the values were obtained:
Fetal rat islets = experiment: Insulin content of cultured fetal rat islets; format: cell-based; conditions: 200μ/ml PYY for 5 days, actinomycin D at 0.1, 0.2, 0.5 and 1.0 μg/ml for the last 16 hours
From the text: (§1) Fetal rat islets were obtained as follows. […] Fetuses were removed from the uterus.

[1] = tested on: small ducts from rat pancreas; conditions: cited from earlier work
E21 fetal islets = experiment: Glucose-stimulated insulin release (static insulin release, RIA) in cultured e21 fetal rat islets; conditions: e21 fetal islets cultured for 5 days with 200 ng/ml peptide
e21 islets = experiment: IBMX stimulated calcium influx in e21 islets; format: cell-based, rat; conditions: 1 μM IBMX in 3 mM (low) glucose; non-glucose responsive e21 islets
Experimental: as §1
E21 islet were isolated and cultured according to Example 1. Islets were then treated with 17 mM glucose or 1 μM IBMX in 3 mM (low) glucose (FIG. 2).

[2] = confluent duct monolayer, single treatment preferentially 48 hr

Compound: Cc1c2oc3c(C)ccc(C(=O)N[C@@H]4C(=O)N[C@H](C(C)C)C(=O)N5CCC[C@H]5C(=O)N(C)CC(=O)N(C)[C@@H](C(C)C)C(=O)O[C@@H]4C)c3nc-2c(C(=O)N[C@@H]2C(=O)N[C@H](C(C)C)C(=O)N3CCC[C@H]3C(=O)N(C)CC(=O)N(C)[C@@H](C(C)C)C(=O)O[C@@H]2C)c(N)c1=O [Actinomycin D, actinomycin D] (I: T[dV]P[Sar][NMeV] / II: T[dV]P[Sar][NMeV]; ester I:1-I:C, II:1-II:C; linker I:N-II:N via Actinocin(9to1))
- overall islet insulin content (Fetal rat islets): did not significantly decrease overall islet insulin content

Compound: CCCC(=O)[O-].[Na+] [Na-Butyrate]
- induction of differentiation [1, 2]: found to induce differentiation

Compound: cholera toxin
- induction of differentiation [1]: found to induce differentiation

Compound: CCCC(=O)Nc1ncnc2c1ncn2[C@@H]1O[C@@H]2COP(=O)(O)O[C@H]2[C@H]1OC(=O)CCC [dibutyrl cAMP]
- induction of differentiation [1, 2]: found to induce differentiation

Compound: PPP: related peptide sharing approximately 70% amino acid homology with PYY; probably pancreatic polypeptide (PP) (APLEPVYPGDNATPEQMAQYAADLRRYINMLTRPRY; ends and bridges not checked; UniProt P01298 30-65, looked up)
- gain of glucose responsivity (glucose-stimulated insulin release) (E21 fetal islets): did not stimulate gain of glucose responsivity

Compound: CC(C)Cn1c(=O)n(C)c(=O)c2[nH]cnc21 [IBMX]
- intracellular calcium influx (e21 islets): induced a calcium influx

Compound: neuropeptide Y [NPY]
- gain of glucose responsivity (glucose-stimulated insulin release) (E21 fetal islets): did not stimulate gain of glucose responsivity
